# Test results as given in patent US4233309A, “Novel 1-substituted-3-acylpyrrole derivatives, platelet aggregation inhibitors containing them, as active ingredients, and processes for production of said derivatives” (Teijin Limited, priority 1977, dated 1980).
# Like-named read-outs stand apart in the source and are kept apart here.
# Legend:
# carrageenan edema = experiment: Antiinflammatory activity (carrageenan edema of rat paw, Table 5); assay type: in vivo, Sprangue-Dawley (SD) male rats; settings: 100 mg/kg orally, 3 h after 1% carrageenan
# Procedure: Sprangue-Dawley (SD) male rats with a body weight of 160 to 180 g, four in each group, were used. The volume of the left leg was measured, and each of the test compounds shown in Table 5 (100 mg/kg dissolved in polyethylene glycol so as to provide a volume of 2 ml/kg) was orally administered. One hour later, 0.1 ml of 1% carrageenan (dissolved in physiological saline) as an inflammation-inducing substance was subcutaneously injected to the paw of the left hind leg. A control group was orally administered with 2 ml/kg of polyethylene glycol. As a positive control, 25 mg/kg of Ibprofen was similarly administered. Three hours after the injection of 1% carrageenan, the volume of the left leg was measured, and the ratio of edema was calculated from the volume before the administration of the carrageenan. The percent inhibition of edema in comparison with the control group was determined.
# [1] = tested on: platelet aggregation (guinea pig PRP, extra vivo); experiment: Inhibitory effect of compounds on platelet aggregation in extra vivo (Table 4); set-up: species or system Hartley-strain guinea pigs; settings: Cavia porcellus, 100 mg/kg, route PS [sic], 1 h
# Procedure: The effect of the compounds shown in Table 4 on platelet aggregation was assessed using guinea pig in extra vivo.
# Each of the test compounds was dissolved in propylene glycol so that its concentration became 100 mg/ml (dosage corresponded to 100 mg/kg) and 30 mg/ml (dosage corresponded to 30 mg/kg). The drug solution was administered either orally or subcutaneously to Hartley-strain guinea pigs (3 per group) having a body weight of 300 to 350 g. As a control, propylene glycol was administered. One hour after the administration, citrated blood was taken out by cardiac puncture, and centrifuged to obtain PRP (see Example 67).
# In the case of oral administration, the animals had been fasted overnight.
# Into a quvett set in a holder of an aggregometer and prewarmed at 37° C. with stirring, was put 450 μl of the above PRP, and then 50 μl of an aggregating agent was added. The aggregation curve was recorded for an additional 3 minutes, and an increase in light transmittance through PRP after 3 minutes (TB) was recorded (see Example 67). As a control, an increase of transmittance of PRP taken from a guinea pig group administered with propylene glycol alone (TA) was recorded in the same way above. The percent inhibitions were calculated in accordance with the following equation. [formula]
# As the aggregating agent, sodium arachidonate (a final concentraton of 0.03 mM) and a collagen suspension (a final concentration of 5 μg/ml) were used.
# The percent inhibitions in the above table are averages of three guinea pigs. For details of the above extra vivo test about inhibition of platelet aggregation, the literature references described in Example 67 may be referred to.
# [2] = tested on: biosynthesis of prostaglandins (microsomes of the seminal vesicle of bovine); experiment: Inhibitory effect on prostaglandin biosynthesis in vitro (Table 3); assay type: biochemical; settings: 4 μg/ml sodium arachidonate, bioassay on rat fundus stomach strips
# Procedure: Sprangue-Dawley rats (male, 180-200 g) were fasted overnight, and killed by blow on the head. The stomach was isolated, and fundus stomach strips were prepared. The smooth muscle strips were perfused with Krebs-Hensleit solution (gassed with 95% O2 +5% CO2 gas) of 37° C. at a rate of […]. The Krebs-Hensleit solution contained 0.1 μg/ml of atropine, 0.1 μg/ml of phenoxybenzamine, 3 μg/ml of propranolol, 0.1 μg/ml of tripelennamine, and 0.2 μg/ml of methylsergide to prevent the effect of smooth muscle contracting substances, and 1 μg/ml of indomethacine to inhibit the biosynthesis of prostaglandin by the smooth muscles. Then, 150 μl of a reaction solution containing biologically synthesized prostaglandin was added to the perfusion solution, and the amount of the biologically synthesized prostaglandin was measured from the contraction of the smooth muscles. The contraction of the smooth muscles was recorded on a recorder using an isotonic transducer.
# The reaction solution containing biologically synthesized prostaglandin was prepared in the following manner.
# To 0.4 mg/ml of microsomes of the seminal vesicle of bovine were added 5 mM of L-tryptophan, 0.025 μM of bovine hemoglobin and 3 mμ of glutathione as cofactors. The mixture was incubated together with each of the test compounds shown in Table 4 at 37° C. for 2 minutes, and immediately then, 4 μg/ml of sodium arachidonate was added. The mixture was further incubated at 37° C. for 10 minutes, and immediately then, the prostaglandin activity of the reaction solution was measured by bioassay.
# The microsomes of the seminal vesicle of bovine had been prepared by suspending microsomes of the seminal vesicle of bovine (a product of Miles Laboratories, Inc.) in a 50 mM Tris.HCl buffer (pH 7.4) using a glass homogenizer, and stored in ice water prior to use.
# ID50 denotes the concentration of each test compound required to inhibit the biosynthesis of prostaglandins by 50%.
# [3] = tested on: platelet aggregation (platelet-rich plasmas (PRP) of guinea pigs); experiment: Activity of inhibiting platelet aggregation in vitro, guinea pig PRP, sodium arachidonate as aggregating agent (Table 1); assay type: cell-based, Hartley-strain male guinea pigs; settings: Cavia porcellus, sodium arachidonate 0.03 mM final, 37° C., final concentration, read-out: IC50 (minimum concentration of drug which showed a percent inhibition of more than 50%)
# Procedure: Some 1-substituted-3-acylpyrrole derivatives and other drugs were tested for platelet aggregation inhibiting activities in vitro using platelet-rich plasmas (PRP) of man and guinea pigs. The results are shown as minimum concentration of drugs which inhibit more than 50% of platelet aggregation induced by several aggregating agents.
# In experiments with PRP of guinea pigs, sodium arachidonate (final concentration 0.03 mM) was used as an aggregating agent. In experiments with human PRP, sodium arachidonate (final concentration 0.1 mM), collagan suspension (final concentration 10 μg/ml), epinephrine solution (final concentration 20 μg/ml; for secondary aggregation), an epinephrine solution (final concentration 2 μg/ml; for primary aggregation) and ADP (final concentration 5 μM) were used as aggregating agents.
# In an experiment with guinea pig PRP, citrated blood (containing 0.38% sodium citrate as a final concentration) was withdrawn by cardiac puncture from Hartley-strain male guinea pigs having a body weight of 350 to 600 g. The citrated blood was centrifuged at 1,000 rpm for 10 minutes at room temperature, and the supernatant platelet suspension (PRP) was separated.
# The PRP was stored at room temperature, and used as soon as possible. Those which had been stored for more than 4 hours after preparation were not used.
# For each test, a drug is dissolved in dimethylsulfoxide to a concentration of 10 mg/ml, and diluted with physiological saline to form 1 ml each of solutions having a concentration of 2500 μg/ml, 1000 μg/ml, 750 μg/ml, 500 μg/ml, 250 μg/ml and 100 μg/ml. A compound having a free carboxylic acid as a residue such as indomethacine and Ibprofen was dissolved in 0.1 M NaHCO3 to form a sodium salt solution having a concentration of 10 mg/ml. Then, the solution was diluted with physiological saline in the same way as above to form a test drug solution.
# Arachidonic acid (99% pure, a product of Sigma Co., Ltd.) was dissolved in 0.1 M NaHCO3, and a 3.3 mM solution of sodium arachidonate was prepared. The solution was diluted with physiological saline to a concentration of 1 mM and used in the experiments. The 3.3 mM solution was stored in a refrigerator as a stock solution, and the 1 mM solution was newly prepared from the stock solution every time it was used.
# Physiological saline (50 μl) and 50 μl of the aggregating agent solution were added to 400 μl of PRP which had been pre-warmed and stirred at 37° C. in a quvett set in a holder of an aggregometer. Platelet aggregation was thus initiated, and the change of light transmittance through a stirred platelet suspension was recorded for 3 minutes by a recorder joined to the aggregometer. An increase in transmittance after 3 minutes (T0) was used as a parameter of the rate of platelet aggregation in control experiments.
# To 400 μl of PRP in a quvett was added 50 μl of a test drug solution. The mixture was pre-incubated and stirred for 2 minutes at 37° C. Then 50 μl of the aggregating agent was added to drug containing PRP and again aggregation responses were recorded as increases in light transmittance after 3 minutes (T1) in the same way as in (1) above. Percent inhibition was calculated from the formula [formula]
# For the above in vitro test for the inhibition of platelet aggregation, reference may be had to H. M. Davis, J. Phyllis, K. Paul and W. Terry: Thromb. Res. 11, 217-226 (1977) and R. E. Anderson and J. G. Foulks: Thromb. Haemos. 36, 343-359 (1976).
smiles,measurement,setting,value
"CC(=O)OCC(C)n1c(C)cc(C(=O)c2ccccc2)c1C (centres unmarked) [Compound 306, 2-(3-benzoyl-2,5-dimethylpyrrol-1-yl)-2-methylethyl acetate]",Percent inhibition of edema,carrageenan edema,16%
same,inhibition at 100 mg/kg,"[1]; collagen 5 μg/ml, read-out: Percent inhibition of platelet aggregation, collagen",34%
same,inhibition at 100 mg/kg,"[1]; sodium arachidonate 0.03 mM, read-out: Percent inhibition of platelet aggregation, sodium arachidonate",62%
same,ID50 (concentration required to inhibit the biosynthesis of prostaglandins by 50%),[2],5.6 µg/mL
same,IC50,[3],7.5 µg/mL
